Legend:
[1] = target: T1, Aldehyde dehydrogenase 1A1 (Homo sapiens) (UniProt P00352); test: Inhibition of N-terminal Met/His6-tagged recombinant human ALDH1A1 (Ser2-Ser501 residues) expressed in Escherichia coli cells at 10 uM using propionaldehyde as substrate preincubated for 15 mins followed by substrate addition by spectrophotometric method relative to control
T1 sequence (whole entry): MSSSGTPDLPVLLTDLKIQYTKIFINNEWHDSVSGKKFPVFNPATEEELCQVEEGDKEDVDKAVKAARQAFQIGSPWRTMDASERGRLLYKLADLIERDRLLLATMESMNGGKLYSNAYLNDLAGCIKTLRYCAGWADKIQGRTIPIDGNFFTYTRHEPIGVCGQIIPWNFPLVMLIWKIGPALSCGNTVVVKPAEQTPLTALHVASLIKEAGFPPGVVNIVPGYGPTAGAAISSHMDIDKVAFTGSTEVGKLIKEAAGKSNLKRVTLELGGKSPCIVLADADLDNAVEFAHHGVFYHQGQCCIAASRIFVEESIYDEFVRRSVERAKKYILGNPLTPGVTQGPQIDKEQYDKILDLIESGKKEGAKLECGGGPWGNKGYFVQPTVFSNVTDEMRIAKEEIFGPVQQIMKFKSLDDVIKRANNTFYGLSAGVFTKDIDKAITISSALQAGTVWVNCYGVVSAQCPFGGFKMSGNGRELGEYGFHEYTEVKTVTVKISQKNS

[2] = target: T2, Aldehyde dehydrogenase 1A1 (Homo sapiens, UniProt P00352); test: Inhibition of N-terminal Met/His6-tagged recombinant human ALDH1A1 (Ser2-Ser501 residues) expressed in Escherichia coli cells using propionaldehyde as substrate preincubated for 15 mins followed by substrate addition by spectrophotometric method
T2 sequence (P00352 whole entry): T1 sequence (whole entry)

SMILES	inhibition [1] [%]	IC50 [2] [µM]
CC(C)=CCN(C(=O)CCCN1CCN(C(=O)c2ccco2)CC1)c1ccc2c(C)cc(=O)oc2c1	4.77	
CC(C)=CCN(C(=O)CCN1CCN(C(=O)c2ccc3c(c2)OCO3)CC1)c1ccc2c(C)cc(=O)oc2c1	50.8	
Cc1cc(=O)oc2cc(N(CC3CCCCC3)C(=O)CCN3CCN(C(=O)c4ccco4)CC3)ccc12	26.2	
CC(C)=CCN(C(=O)CN1CCN(C(=O)c2ccco2)CC1)c1ccc2c(C)cc(=O)oc2c1	33.6	
CC(C)=CCN(C(=O)CCN1CCN(C(=O)c2cccnc2)CC1)c1ccc2c(C)cc(=O)oc2c1	26.6	
CC(C)=CCN(C(=O)CCN1CCN(C(=O)c2ccc([N+](=O)[O-])cc2)CC1)c1ccc2c(C)cc(=O)oc2c1	47.1	
CCCCN(C(=O)CCN1CCN(C(=O)c2ccco2)CC1)c1ccc2c(C)cc(=O)oc2c1	26.5	
CC(C)=CCN(C(=O)CCN1CCN(C(=O)c2ccccc2F)CC1)c1ccc2c(C)cc(=O)oc2c1	51.8	
CC(C)=CCN(C(=O)CCN1CCN(C(=O)c2ccc(C(F)(F)F)cc2)CC1)c1ccc2c(C)cc(=O)oc2c1	33.7	
Cc1ccc(CN(C(=O)CCN2CCN(C(=O)c3ccco3)CC2)c2ccc3c(C)cc(=O)oc3c2)cc1	6.43	
Cc1ccccc1CN(C(=O)CCN1CCN(C(=O)c2ccco2)CC1)c1ccc2c(C)cc(=O)oc2c1	13.2	
CC(C)=CCN(C(=O)CCN1CCN(C(=O)c2cccc([N+](=O)[O-])c2)CC1)c1ccc2c(C)cc(=O)oc2c1	55.4	29.3
CC(C)=CCN(C(=O)CCN1CCN(C(=O)c2ccc(C)cc2)CC1)c1ccc2c(C)cc(=O)oc2c1	49.7	
Cc1cc(=O)oc2cc(N(Cc3ccccc3)C(=O)CCN3CCN(C(=O)c4ccco4)CC3)ccc12	2.96	
Cc1cccc(CN(C(=O)CCN2CCN(C(=O)c3ccco3)CC2)c2ccc3c(C)cc(=O)oc3c2)c1	9.77	
Cc1cc(=O)oc2cc(N(CC3CCCC3)C(=O)CCN3CCN(C(=O)c4ccco4)CC3)ccc12	17.4	
Cc1cc(=O)oc2cc(N(CC3CCC3)C(=O)CCN3CCN(C(=O)c4ccco4)CC3)ccc12	35.1	
CC(C)=CCN(C(=O)CCN1CCN(C(=O)c2ccc(C#N)cc2)CC1)c1ccc2c(C)cc(=O)oc2c1	34.1	
Cc1cc(=O)oc2cc(N(CCC(C)C)C(=O)CCN3CCN(C(=O)c4ccco4)CC3)ccc12	25.5	
CC(C)=CCN(C(=O)CCN1CCN(C(=O)c2ccncc2)CC1)c1ccc2c(C)cc(=O)oc2c1	23.5	
CCCN(C(=O)CCN1CCN(C(=O)c2ccco2)CC1)c1ccc2c(C)cc(=O)oc2c1	50.7	
CC(C)=CCN(C(=O)CCN1CCN(C(=O)c2ccc(F)cc2)CC1)c1ccc2c(C)cc(=O)oc2c1	25.1	
Cc1cc(=O)oc2cc(N(CC3CC3)C(=O)CCN3CCN(C(=O)c4ccco4)CC3)ccc12	32	

Source: ChEMBL document CHEMBL4602633, “Discovery of coumarin-based selective aldehyde dehydrogenase 1A1 inhibitors with glucose metabolism improving activity” (Eur J Med Chem, 2020)
